We go through four compounds from PMC10290954 (Nature Metabolism, 2023).

The test system of one series is human islets. The series is described as follows: Human islets, glucagon secretion with tirzepatide at 2.7 or 10 mM glucose ± alanine (Fig. 3d). It is filed as cell-based. As to the method:
Human islets were obtained from both the Alberta Diabetes Institute and the Integrated Islet Distribution Program. All islets were obtained from consenting donors. Details for the general perifusion protocol have been previously described[21] and are similar to the mouse perifusion protocol. […] Each set of human islets consisted of n = 3 for each condition. These were averaged to generate a single data point (Fig. 2c). Insulin values were measured with a Lumit insulin immunoassay (Promega) using an EnVision plate reader (PerkinElmer). For the glucagon secretion experiments (Fig. 3), the average glucagon values were calculated during control (minutes 35–45) and stimulated (minutes 55–65) conditions. All peptides were used at 30 nM concentrations based on previous work[16]. Amino acids were used at concentrations of 3 mM based on previous work[11]. Glucagon was measured with a Lumit Glucagon Immunoassay Kit (cat. no. CS3037A02; Promega) using an EnVision plate reader (PerkinElmer). Somatostatin was measured with an ELISA assay (cat. no. FEK-060-14; Phoenix Pharmaceuticals). All data are expressed as the measured concentration relative to both flow rate and islet number (insulin, ng ml^–1 × (1/200 µl ml^–1) × (1/75 islets); glucagon, pM × (1/200 µl ml^–1) × (1/75 islets); somatostatin, pg ml^–1 × (1/200 µl ml^–1) × (1/75 islets))[49]. […]

Series [1] deals with T1, Mouse GLP-1R (Mus musculus, UniProt O35659).
T1 construct: expressed in transfected cells; host or cells: HEK293T, transient (Lipofectamine 2000)
T1 sequence (O35659 22-463): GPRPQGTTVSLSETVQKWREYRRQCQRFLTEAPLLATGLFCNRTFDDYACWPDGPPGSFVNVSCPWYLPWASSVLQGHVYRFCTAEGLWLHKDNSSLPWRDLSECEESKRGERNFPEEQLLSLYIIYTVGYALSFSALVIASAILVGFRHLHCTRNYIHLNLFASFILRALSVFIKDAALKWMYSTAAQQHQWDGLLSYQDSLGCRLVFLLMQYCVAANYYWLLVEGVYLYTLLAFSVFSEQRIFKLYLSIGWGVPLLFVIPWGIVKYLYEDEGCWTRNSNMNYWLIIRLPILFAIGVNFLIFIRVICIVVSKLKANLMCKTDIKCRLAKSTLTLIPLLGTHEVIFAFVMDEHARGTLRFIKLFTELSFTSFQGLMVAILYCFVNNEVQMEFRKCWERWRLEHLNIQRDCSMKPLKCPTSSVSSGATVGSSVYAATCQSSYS
As to the kind of experiment: cAMP generation (Glosensor), mouse GLP-1R. It counts as cell-based. As to the method:
(§1) Methods for these assays have been previously described. In brief, for GTPγs binding, the potency of ligands to stimulate receptor-dependent elevation of the GTPγS-bound Gαs subunit was determined using membrane preparations from low-receptor-density receptor clonal cell lines. Reactions were incubated for 30 min at room temperature in white, clear-bottom microtiter plates, and per cent of the maximal response was calculated using control wells as a reference. Relative EC50 values were derived by nonlinear regression analysis using the per cent response versus the concentration of ligand and fitted to a four-parameter logistic equation using GraphPad Prism 7 software. For cAMP assays, kinetic cAMP assays were performed in low-density receptor cell clones transfected with the Glosensor 22 F vector (Promega). Cells were equilibrated for 5–20 min and then 20 μl of 10× ligand was added and a luminescence time course was collected. Ligand (10×) was titrated by manual serial dilution in DMSO followed by step-down into assay buffer.

The conditions of series [2]: in vivo; cited from earlier work. The text has this: Tirzepatide is an agonist for both incretin receptors, engineered from the human GIP (hGIP) peptide sequence. It has an average half-life of approximately 5 days, enabling once-weekly dosing.
Series [3] deals with T1, Mouse GLP-1R. As to the kind of experiment: Gs recruitment (ligand-induced BRET), mouse GLP-1R. It counts as cell-based. The conditions noted are these: mean (SEM, n). As to the method:
(§2) BRET measurements were taken every 1 min using a PHERAstar FS multi-mode microplate reader. Baseline measurements were taken after an initial 5 min incubation with coelenterazine-h or NanoGlo-containing HBSS, after which cells were treated with either a vehicle (PBS) or the respective ligands. Ligand-specific ratiometric BRET signals were normalized to the vehicle, producing the ‘ligand-induced BRET ratio’[46], followed by additional normalization to well-specific baseline readings. Ligand-induced measurements on the temporal scale are represented as the subsequent measurement after time point zero. Positive or negative incremental area under the curves (+iAUC, –iAUC) were calculated where noted. Concentration–response curves were generated by three-parameter logistic fitting in Prism 9.0.

In series [4] the target is T2, mouse GIP receptor (Mus musculus, UniProt Q0P543).
T2 sequence (Q0P543 19-460): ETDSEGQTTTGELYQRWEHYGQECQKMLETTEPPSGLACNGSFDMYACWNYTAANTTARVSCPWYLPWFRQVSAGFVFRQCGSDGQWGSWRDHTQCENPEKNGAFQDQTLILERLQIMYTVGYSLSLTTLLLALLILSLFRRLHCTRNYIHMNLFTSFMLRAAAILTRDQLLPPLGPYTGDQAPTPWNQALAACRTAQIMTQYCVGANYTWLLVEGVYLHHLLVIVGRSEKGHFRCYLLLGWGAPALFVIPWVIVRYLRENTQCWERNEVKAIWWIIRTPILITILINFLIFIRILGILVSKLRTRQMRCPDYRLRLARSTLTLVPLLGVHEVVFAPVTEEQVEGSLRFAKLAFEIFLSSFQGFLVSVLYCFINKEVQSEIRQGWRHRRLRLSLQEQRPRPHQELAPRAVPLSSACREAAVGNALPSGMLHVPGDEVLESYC
As to the kind of experiment: Gs recruitment (ligand-induced BRET), mouse GIPR. It counts as cell-based. On the set-up: expressed in transfected cells. The conditions noted are these: HEK-293T, read-out: Gs recruitment Emax. As to the method:
as §2
For orientation: In BRET a luciferase serves as donor, and the signal depends on an acceptor being close.

For series [5], the target named is T2, mouse GIP receptor. The series is described as follows: cAMP generation (Glosensor), mouse GIPR. It counts as cell-based. On the set-up: expressed in transfected cells; host or cells: low-receptor-density clonal cell lines. The conditions noted are these: mouse GIPR, low-density receptor clones, Glosensor; mean (s.e.m., n); read-out: cAMP Emax. As to the method:
as §1

The target in series [6] is T2, mouse GIP receptor. The series is described as follows: [35S]GTPγS binding, mouse GIPR. It counts as biochemical. On the set-up: expressed in transfected cells; host or cells: low-receptor-density clonal cell lines. As for the experimental part:
as §1, with “collected.” for “collected. Ligand (10×) was titrated by manual serial dilution in DMSO followed by step-down into assay buffer.”

Series [7] deals with mouse GLP-1 receptor (mouse) (UniProt O35659). The series is described as follows: other; competition with radioligand, header printed as [125I]GIP(1-42)OH.

Values joined by “and” are separate entries in the source; they are usually repeats but may differ in a detail not shown here. Equal entries are not always repeated.

For the compound `C[C@H](N)C(=O)O` [Alanine], the “iAUC values (glucagon secretion)” value in the series with human islets was 42.82 and 37.07 and 49.41 and 40.38 and 34.9 and 39.11.

For `CC[C@H](C)[C@H](NC(=O)[C@H](CC(C)C)NC(=O)[C@H](Cc1c[nH]c2ccccc12)NC(=O)[C@H](CCC(N)=O)NC(=O)[C@@H](NC(=O)[C@H](Cc1ccccc1)NC(=O)[C@H](C)NC(=O)[C@H](CCCCNC(=O)COCCOCCNC(=O)COCCOCCNC(=O)CC[C@H](NC(=O)CCCCCCCCCCCCCCCCCCC(=O)O)C(=O)O)NC(=O)[C@H](CCC(N)=O)NC(=O)[C@H](C)NC(=O)[C@@H](NC(=O)[C@H](CCCCN)NC(=O)[C@H](CC(=O)O)NC(=O)[C@H](CC(C)C)NC(=O)C(C)(C)NC(=O)[C@@H](NC(=O)[C@H](CO)NC(=O)[C@H](Cc1ccc(O)cc1)NC(=O)[C@H](CC(=O)O)NC(=O)[C@H](CO)NC(=O)[C@@H](NC(=O)[C@H](Cc1ccccc1)NC(=O)[C@@H](NC(=O)CNC(=O)[C@H](CCC(=O)O)NC(=O)C(C)(C)NC(=O)[C@@H](N)Cc1ccc(O)cc1)[C@@H](C)O)[C@@H](C)O)[C@@H](C)CC)[C@@H](C)CC)C(C)C)C(=O)N[C@@H](C)C(=O)NCC(=O)NCC(=O)N1CCC[C@H]1C(=O)N[C@@H](CO)C(=O)N[C@@H](CO)C(=O)NCC(=O)N[C@@H](C)C(=O)N1CCC[C@H]1C(=O)N1CCC[C@H]1C(=O)N1CCC[C@H]1C(=O)N[C@@H](CO)C(N)=O` [TZP, tirzepatide], the Emax (usually the size of the effect at its maximum, as opposed to the concentration needed) is 95% at Mouse GLP-1R [1] (HEK293, mouse GLP-1R HEK-293 cells, n = 6, read-out: Emax, mean of column (T-test Emax, cAMP)); 95% on Mouse GLP-1R [1] (HEK293, read-out: Arthmetic Mean Emax); 84% at Mouse GLP-1R [1] (Mouse GLP-1R, mean (n), read-out: cAMP EMAX); 35.6% at Mouse GLP-1R [3]; 72.6% on mouse GIP receptor [4] (mouse GIPR, HEK293T BRET, mean (s.e.m., n)); 103% at mouse GIP receptor [5]. For the same compound, the Half-life result in series [2] was “approximately 5 days”.

For the compound `CC[C@H](C)[C@H](NC(=O)[C@H](CO)NC(=O)[C@H](Cc1ccc(O)cc1)NC(=O)[C@H](CC(=O)O)NC(=O)[C@H](CO)NC(=O)[C@@H](NC(=O)[C@H](Cc1ccccc1)NC(=O)[C@@H](NC(=O)CNC(=O)[C@H](CCC(=O)O)NC(=O)[C@H](C)NC(=O)[C@@H](N)Cc1ccc(O)cc1)[C@@H](C)O)[C@@H](C)CC)C(=O)N[C@@H](C)C(=O)N[C@@H](CCSC)C(=O)N[C@@H](CC(=O)O)C(=O)N[C@@H](CCCCN)C(=O)N[C@H](C(=O)N[C@@H](CCCNC(=N)N)C(=O)N[C@@H](CCC(N)=O)C(=O)N[C@@H](CCC(N)=O)C(=O)N[C@@H](CC(=O)O)C(=O)N[C@@H](Cc1ccccc1)C(=O)N[C@H](C(=O)N[C@@H](CC(N)=O)C(=O)N[C@@H](Cc1c[nH]c2ccccc12)C(=O)N[C@@H](CC(C)C)C(=O)N[C@@H](CC(C)C)C(=O)N[C@@H](C)C(=O)N[C@@H](CCC(N)=O)C(=O)N[C@@H](CCCNC(=N)N)C(=O)NCC(=O)N[C@@H](CCCCN)C(=O)N[C@@H](CCCCN)C(=O)N[C@@H](CO)C(=O)N[C@@H](CC(=O)O)C(=O)N[C@@H](Cc1c[nH]c2ccccc12)C(=O)N[C@@H](CCCCN)C(=O)N[C@@H](Cc1c[nH]cn1)C(=O)N[C@@H](CC(N)=O)C(=O)N[C@H](C(=O)N[C@H](C(=O)N[C@@H](CCC(N)=O)C(N)=O)[C@@H](C)O)[C@@H](C)CC)C(C)C)[C@@H](C)CC` [mGIP], the Emax was found to be 98.5% at mouse GIP receptor [6] (mGIPR GTPgS, run of 2019-06-25); 98.7% on mouse GIP receptor [6] (mGIPR GTPgS, run of 2022-05-11); 98% at mouse GIP receptor [6] (mGIPR GTPgS, run of 2022-05-12); 101% at mouse GIP receptor [6] (mGIPR GTPgS, run of 2022-06-16); 102% on mouse GIP receptor [6] (mGIPR GTPgS, run of 2022-06-21); 98.9% at mouse GIP receptor [6] (read-out: [35S]GTPγS binding Emax, mouse GIPR, membranes, 30 min room temperature, mean (s.e.m., n)). The results for the Emax at mouse GIP receptor [4] and on mouse GIP receptor [5] were 100% and 103%, respectively.

Take TZP: in series [7], the Ki (in general, a measure of affinity in units of concentration, obtained from inhibition or displacement) is 0.387 nM.
